# Measurements from patent publication US20230121721A1, “MONOACYLGLYCEROL LIPASE INHIBITORS” (STICHTING HET NEDERLANDS KANKER INSTITUUT - ANTONI VAN …, priority 2020, published 2023).
# pIC50: −log10 of the molar value.
# Molecular target: T1, hMAGL (MAGL-overexpressing membrane preparations from transiently transfected HEK293T cells) (Homo sapiens, UniProt Q99685)
# T1 construct: expressed in transfected cells; host or cells: HEK293T (transient transfection), membrane preparations
# T1 sequence (Q99685 1-303): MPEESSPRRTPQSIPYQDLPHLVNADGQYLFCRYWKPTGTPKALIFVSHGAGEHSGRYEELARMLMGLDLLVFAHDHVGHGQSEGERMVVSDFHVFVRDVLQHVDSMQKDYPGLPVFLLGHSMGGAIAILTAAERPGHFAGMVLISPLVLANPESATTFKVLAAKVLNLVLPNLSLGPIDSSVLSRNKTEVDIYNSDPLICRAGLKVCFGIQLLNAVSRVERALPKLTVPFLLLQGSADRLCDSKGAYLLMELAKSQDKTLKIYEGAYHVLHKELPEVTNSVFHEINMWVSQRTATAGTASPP
# Assay: MAGL activity assay (2-AG hydrolysis, glycerol coupled to Amplifu Red fluorescence)
# Assay type: biochemical
# Details: hMAGL-overexpressing HEK293T membranes, 25 μM 2-AG substrate, 20 min. inhibitor incubation
# Excerpt: The MAGL activity assay is based on the production of glycerol from 2-arachidonoylglycerol (2-AG) hydrolysis by MAGL-overexpressing membrane preparations from transiently transfected HEK293T cells, as previously reported in van der Wel T et al., “A natural substrate-based fluorescence assay for inhibitor screening on diacylglycerol lipase”, J Lipid Res., 2015, 56(4), 927-35. The produced glycerol is coupled to the oxidation of commercially available Amplifu™ Red (Sigma-Aldrich Chemie N.V., Zwijndrecht, Netherlands) via a multi-enzyme cascade, resulting in a fluorescent signal from the dye resorufin.
# Standard assays were performed in HEMNB buffer (50 mM HEPES pH 7.4, 1 mM EDTA, 5 mM MgCl2, 100 mM NaCl, 0.5% (w/v) BSA) in black, flat bottom 96-wells plates. Final protein concentration of membrane preparations from overexpressing hMAGL HEK293T cells was 1.5 μg/mL (0.3 μg per well). Inhibitors were added from 40× concentrated DMSO stocks. […] Final assay concentrations: 0.2 U/mL GK, GPO and HRP, 0.125 mM ATP, 10 μM Amplifu™ Red, 25 μM 2-AG, 5% DMSO, 0.5% ACN in a total volume of 200 μL.
# For IC50 determination, the MAGL-overexpressing membranes were incubated with different inhibitor concentrations. Slopes of corrected fluorescence in time were determined in the linear interval of t=10 to t=35 min and then scaled to the corrected positive control of hMAGL-overexpressing membranes treated with vehicle (DMSO) as a 100% activity reference point. The data was exported to GraphPad Prism 5.0 and analysed in a non-linear dose-response analysis with variable slope.
row,pIC50,Compound
1,6.69,"C[C@H]1[C@H](C)N(c2cccc(Cl)c2)CCN1C(=O)c1ccc([S+]([O-])CC(=O)c2ncco2)c(Cl)c1 (mixture of isomers) [Example 74, (±) 2-((2-Chloro-4-(4-(3-chlorophenyl)-trans-2,3-dimethylpiperazine-1-carbonyl)phenyl)sulfinyl)-1-(oxazol-2-yl)ethan-1-one]"
2,< 5.00,"C[C@H]1[C@H](C)N(c2cccc(Cl)c2)CCN1C(=O)c1ccc([S+]([O-])CC(=O)c2ccc(Cl)c(C(F)(F)F)c2)c(Cl)c1 (mixture of isomers) [Example 91, (±) 1-(4-Chloro-3-(trifluoromethyl)phenyl)-2-((2-chloro-4-(4-(3-chlorophenyl)-trans-2,3-dimethyl-piperazine-1-carbonyl)-phenyl)sulfinyl)ethan-1-one]"
3,7.89,"C[C@H]1[C@H](C)N(c2cccc(Cl)c2)CCN1C(=O)c1ccc([S+]([O-])CC(=O)OC2CCOCC2)c(Cl)c1 (mixture of isomers) [Example 67, (±) tetraHydro-2H-pyran-4-yl 2-((2-chloro-4-(4-(3-chlorophenyl)-trans-2,3-dimethylpiperazine-1-carbonyl)phenyl)sulfinyl)acetate]"
4,5.71,"CCOC(=O)C[S+]([O-])c1ccc(C(=O)N2CCN(c3ccc(Cl)cc3Cl)CC2)cc1[N+](=O)[O-] (stereo not drawn) [Example 23, Ethyl 2-((4-(4-(2,4-dichlorophenyl)piperazine-1-carbonyl)-2-nitrophenyl)sulfinyl)acetate]"
5,8.83,"C[C@H]1[C@H](C)N(c2cccc(Cl)c2)CCN1C(=O)c1ccc([S+]([O-])CC(=O)C(C)(F)F)c(Cl)c1 (mixture of isomers) [Example 78, (±) 1-((2-Chloro-4-(4-(3-chlorophenyl)-trans-2,3-dimethylpiperazine-1-carbonyl)phenyl)sulfinyl)-3,3-difluorobutan-2-one]"
6,6.20,"CCOC(=O)C[S+]([O-])c1ccc(C(=O)N2CCN(c3cccc(F)c3)CC2)cc1[N+](=O)[O-] (stereo not drawn) [Example 9, Ethyl 2-((4-(4-(3-fluorophenyl)piperazine-1-carbonyl)-2-nitrophenyl)sulfinyl)acetate]"
7,7.33,"COCC(C)OC(=O)C[S+]([O-])c1ccc(C(=O)N2CCN(c3cccc(Cl)c3)[C@@H](C)[C@@H]2C)cc1Cl (mixture of isomers) [Example 66, (±) 1-Methoxypropan-2-yl 2-((2-chloro-4-(4-(3-chlorophenyl)-trans-2,3-dimethylpiperazine-1-carbonyl)phenyl)sulfinyl)acetate]"
8,8.47,"C[C@H]1[C@H](C)N(c2cc(Cl)ccn2)CCN1C(=O)c1ccc([S+]([O-])CC(=O)C(C)(F)F)c(Cl)c1 (mixture of isomers) [Example 83, (±) 1-((2-Chloro-4-(4-(4-chloropyridin-2-yl)-trans-2,3-dimethylpiperazine-1-carbonyl)phenyl)sulfinyl)-3,3-difluorobutan-2-one]"
9,8.04,"CCOC(=O)C[S+]([O-])c1ccc(C(=O)N2CCN(c3cccc(Cl)n3)[C@@H](C)[C@@H]2C)cc1Cl (mixture of isomers) [Example 70, (±) Ethyl 2-((2-chloro-4-(-4-(6-chloropyridin-2-yl)-trans-2,3-dimethylpiperazine-1-carbonyl)phenyl)sulfinyl)acetate]"
10,7.24,"CCOC(=O)C[S+]([O-])c1ccc(C(=O)N2CCN(c3cccc(Cl)c3)CC2(C)C)cc1F (stereo not drawn) [Example 48, Ethyl 2-((4-(4-(3-chlorophenyl)-2,2-dimethylpiperazine-1-carbonyl)-2-fluorophenyl)sulfinyl)acetate]"
11,5.68,"C[C@H]1[C@H](C)N(c2cccc(Cl)c2)CCN1C(=O)c1ccc([S+]([O-])CC(=O)c2cc(F)cc(F)c2)c(Cl)c1 (mixture of isomers) [Example 89, (±) 2-((2-Chloro-4-(4-(3-chlorophenyl)-trans-2,3-dimethylpiperazine-1-carbonyl)phenyl)sulfinyl)-1-(3,5-difluorophenyl)ethan-1-one]"
12,5.01,"C[C@H]1[C@H](C)N(c2cccc(Cl)c2)CCN1C(=O)c1ccc([S+]([O-])CC(=O)c2cccnc2)c(Cl)c1 (mixture of isomers) [Example 85, (±) 2-((2-Chloro-4-(4-(3-chlorophenyl)-trans-2,3-dimethylpiperazine-1-carbonyl)phenyl)sulfinyl)-1-(pyridin-3-yl)ethan-1-one]"
13,8.63,"C[C@H]1[C@H](C)N(c2cccc(Cl)c2)CCN1C(=O)c1ccc([S+]([O-])CC(=O)C(F)F)c(Cl)c1 (mixture of isomers) [Example 77, (±) 3-((2-Chloro-4-(4-(3-chlorophenyl)-trans-2,3-dimethylpiperazine-1-carbonyl)phenyl)sulfinyl)-1,1-difluoropropan-2-one]"
14,5.53,"C[C@H]1[C@H](C)N(c2cccc(Cl)c2)CCN1C(=O)c1ccc([S+]([O-])CC(=O)c2ccc(C(F)(F)F)cc2)c(Cl)c1 (mixture of isomers) [Example 103, (±) 2-((2-Chloro-4-(4-(3-chlorophenyl)-trans-2,3-dimethylpiperazine-1-carbonyl)phenyl)sulfinyl)-1-(4-(trifluoromethyl)phenyl)ethan-1-one]"
15,5.25,"CCOC(=O)C[S+]([O-])c1ccc(C(=O)N2CCN(c3cccc(C)c3)[C@@H](C)C2)cc1 (stereo partly drawn) [Example 7, Ethyl 2-((4-((S)-3-methyl-4-(m-tolyl)piperazine-1-carbonyl)phenyl)sulfinyl)acetate]"
16,7.04,"C[C@H]1[C@H](C)N(c2cccc(Cl)c2)CCN1C(=O)c1ccc([S+]([O-])CC(=O)c2ccc(C#N)cc2)c(Cl)c1 (mixture of isomers) [Example 99, (±) 4-(2-((2-Chloro-4-(4-(3-chlorophenyl)-trans-2,3-dimethyl-piperazine-1-carbonyl)phenyl)sulfinyl)acetyl)benzonitrile]"
17,6.23,"CCOC(=O)C[S+]([O-])c1ccc(C(=O)N2CCN(c3ccc(C(F)(F)F)cc3)CC2)cc1[N+](=O)[O-] (stereo not drawn) [Example 16, Ethyl 2-((2-nitro-4-(4-(4-(trifluoromethyl)phenyl)piperazine-1-carbonyl)phenyl)sulfinyl)acetate]"
18,6.63,"C[C@H]1[C@H](C)N(c2cccc(Cl)c2)CCN1C(=O)c1ccc([S+]([O-])CC(=O)c2ccc(F)cc2F)c(Cl)c1 (mixture of isomers) [Example 97, (±) 2-((2-Chloro-4-(4-(3-chlorophenyl)-trans-2,3-dimethylpiperazine-1-carbonyl)phenyl)sulfinyl)-1-(2,4-difluorophenyl)ethan-1-one]"
19,7.06,"C[C@H]1[C@H](C)N(c2cccc(Cl)c2)CCN1C(=O)c1ccc([S+]([O-])CC(=O)C(F)(F)c2ccccc2)c(Cl)c1 (mixture of isomers) [Example 80, (±) 3-((2-Chloro-4-(4-(3-chlorophenyl)-trans-2,3-dimethylpiperazine-1-carbonyl)phenyl)sulfinyl)-1,1-difluoro-1-phenylpropan-2-one]"
20,6.60,"C[C@H]1[C@H](C)N(c2cccc(Cl)c2)CCN1C(=O)c1ccc([S+]([O-])CC(=O)c2cccnn2)c(Cl)c1 (mixture of isomers) [Example 88, (±) 2-((2-Chloro-4-(4-(3-chlorophenyl)-trans-2,3-dimethylpiperazine-1-carbonyl)phenyl)sulfinyl)-1-(pyridazin-3-yl)ethan-1-one]"
21,5.59,"CCOC(=O)C[S+]([O-])c1ccc(C(=O)N2CCN(c3ccc(Cl)c(Cl)c3)CC2)cc1[N+](=O)[O-] (stereo not drawn) [Example 22, Ethyl 2-((4-(4-(3,4-dichlorophenyl)piperazine-1-carbonyl)-2-nitrophenyl)sulfinyl)acetate]"
22,6.15,"C[C@H]1[C@H](C)N(c2cccc(Cl)c2)CCN1C(=O)c1ccc([S+]([O-])CC(=O)c2ccnnc2)c(Cl)c1 (mixture of isomers) [Example 96, (±) 2-((2-Chloro-4-(4-(3-chlorophenyl)-trans-2,3-dimethylpiperazine-1-carbonyl)phenyl)sulfinyl)-1-(pyridazin-4-yl)ethan-1-one]"
23,5.96,"C[C@H]1[C@H](C)N(c2cccc(Cl)c2)CCN1C(=O)c1ccc([S+]([O-])CC(=O)c2cnccn2)c(Cl)c1 (mixture of isomers) [Example 101, (±) 2-((2-Chloro-4-(4-(3-chlorophenyl)-trans-2,3-dimethylpiperazine-1-carbonyl)phenyl)sulfinyl)-1-(pyrazin-2-yl)ethan-1-one]"
24,5.72,"C[C@H]1[C@H](C)N(c2cccc(Cl)c2)CCN1C(=O)c1ccc([S+]([O-])CC(=O)c2ccc(F)cc2)c(Cl)c1 (mixture of isomers) [Example 86, (±) 2-((2-Chloro-4-(4-(3-chlorophenyl)-trans-2,3-dimethylpiperazine-1-carbonyl)phenyl)sulfinyl)-1-(4-fluorophenyl)ethan-1-one]"
